Source: the NIST ThermoML archive (doi:10.1021/acs.jced.8b01120)
Where “and” joins values, the source holds several entries; their conditions need not be identical. Equal entries are not always repeated. ± gives the expanded uncertainty stated by the source.

How the values were obtained:
[1] = 100 kPa, Liquid; for speed of sound: Single path-length method; for mass density: Vibrating tube method
[2] = xn = mol fraction of the nth substance listed; conditions: 100 kPa, Liquid; for speed of sound: Single path-length method; for mass density: Vibrating tube method

CCCCOC(C)=O [butyl ethanoate]
[1]
Conditions | mass density [kg/m3] | speed of sound [m/s]
293.15 K | 881.54 ± 2 | 1211.6 ± 4
298.15 K | 876.399 ± 2 | 1191.5 ± 4
303.15 K | 871.235 ± 2 | 1172.4 ± 4
308.15 K | 866.05 ± 2 | 1153.9 ± 4
313.15 K | 860.84 ± 2 | 1131.5 ± 4

CCCCOC(C)=O [butyl ethanoate] + CCCCN(CCCC)CCCC
[2], x2 = 0
Conditions | mass density [kg/m3] | speed of sound [m/s]
293.15 K | 881.54 ± 2 | 1211.6 ± 4
298.15 K | 876.399 ± 2 | 1191.5 ± 4
303.15 K | 871.235 ± 2 | 1172.4 ± 4
308.15 K | 866.05 ± 2 | 1153.9 ± 4
313.15 K | 860.84 ± 2 | 1131.5 ± 4

CCOC(C)=O [ethyl acetate]
[1]
Conditions | mass density [kg/m3] | speed of sound [m/s]
293.15 K | 900.882 ± 2 | 1164.3 ± 4
298.15 K | 894.79 ± 2 | 1142.9 ± 4
303.15 K | 888.656 ± 2 | 1119.4 ± 4
308.15 K | 882.475 ± 2 | 1097.2 ± 4
313.15 K | 876.247 ± 2 | 1075 ± 4

CCOC(C)=O [ethyl acetate] + CCCCN(CCCC)CCCC
[2], x2 = 0
Conditions | mass density [kg/m3] | speed of sound [m/s]
293.15 K | 900.882 ± 2 | 1164.3 ± 4
298.15 K | 894.79 ± 2 | 1142.9 ± 4
303.15 K | 888.656 ± 2 | 1119.4 ± 4
308.15 K | 882.475 ± 2 | 1097.2 ± 4
313.15 K | 876.247 ± 2 | 1075 ± 4

COC(C)=O [methyl ethanoate]
[1]
Conditions | mass density [kg/m3] | speed of sound [m/s]
293.15 K | 935.01 ± 2 | 1180.4 ± 4
298.15 K | 928.458 ± 2 | 1157.5 ± 4
303.15 K | 921.85 ± 2 | 1134.9 ± 4
308.15 K | 915.16 ± 2 | 1109.2 ± 4
313.15 K | 908.49 ± 2 | 1089.6 ± 4

COC(C)=O [methyl ethanoate] + CCCCN(CCCC)CCCC
[2], x2 = 0
Conditions | mass density [kg/m3] | speed of sound [m/s]
293.15 K | 935.01 ± 2 | 1180.4 ± 4
298.15 K | 928.458 ± 2 | 1157.5 ± 4
303.15 K | 921.85 ± 2 | 1134.9 ± 4
308.15 K | 915.16 ± 2 | 1109.2 ± 4
313.15 K | 908.49 ± 2 | 1089.6 ± 4

CCCCCOC(C)=O [pentyl ethanoate]
[1]
Conditions | mass density [kg/m3] | speed of sound [m/s]
293.15 K | 876.248 ± 2 | 1243 ± 4.1
298.15 K | 871.32 ± 2 | 1220.7 ± 4.1
303.15 K | 865.782 ± 2 | 1196.8 ± 4.1
308.15 K | 860.581 ± 2 | 1174.2 ± 4.1
313.15 K | 855.357 ± 2 | 1152.3 ± 4.1

CCCOC(C)=O [propyl ethanoate]
[1]
Conditions | mass density [kg/m3] | speed of sound [m/s]
293.15 K | 888.964 ± 2.1 | 1190.3 ± 4.5
298.15 K | 883.369 ± 2.1 | 1164.2 ± 4.5
303.15 K | 877.422 ± 2.1 | 1145 ± 4.5
308.15 K | 871.784 ± 2.1 | 1123.7 ± 4.5
313.15 K | 866.115 ± 2.1 | 1102.3 ± 4.5

CCCOC(C)=O [propyl ethanoate] + CCCCN(CCCC)CCCC
[2], x2 = 0
Conditions | mass density [kg/m3] | speed of sound [m/s]
293.15 K | 888.964 ± 2.1 | 1190.3 ± 4.5
298.15 K | 883.369 ± 2.1 | 1164.2 ± 4.5
303.15 K | 877.422 ± 2.1 | 1145 ± 4.5
308.15 K | 871.784 ± 2.1 | 1123.7 ± 4.5
313.15 K | 866.115 ± 2.1 | 1102.3 ± 4.5

CCCCN(CCCC)CCCC [tributylamine]
[1]
Conditions | mass density | speed of sound [m/s]
293.15 K | 777.01 ± 2 kg/m3 and 777.006 ± 2 kg/m3 | 1264.2 ± 4
298.15 K | 773.283 ± 2 kg/m3 and 773.28 ± 2 kg/m3 | 1245.2 ± 4
303.15 K | 769.55 ± 2 kg/m3 and 769.552 ± 2 kg/m3 | 1226.2 ± 4
308.15 K | 765.81 ± 2 kg/m3 and 765.811 ± 2 kg/m3 | 1207.4 ± 4
313.15 K | 762.06 ± 2 kg/m3 and 762.061 ± 2 kg/m3 | 1188.8 ± 4

CCCCN(CCCC)CCCC [tributylamine] + CCCCCOC(C)=O
[2], x1 = 1
Conditions | mass density [kg/m3] | speed of sound [m/s]
293.15 K | 777.006 ± 2 | 1264.2 ± 4
298.15 K | 773.283 ± 2 | 1245.2 ± 4
303.15 K | 769.552 ± 2 | 1226.2 ± 4
308.15 K | 765.811 ± 2 | 1207.4 ± 4
313.15 K | 762.061 ± 2 | 1188.8 ± 4
